{
  "source": "patent US20190018003A1",
  "about": "“TUMOR DISCRIMINATION METHOD, DIAGNOSTIC AGENT FOR TUMOR, AND SENSITIZER FOR TUMOR DIAGNOSIS” (TOTO LTD., priority 2017, published 2019)",
  "test_system": "T24 urinary bladder cancer cells",
  "test": "Fluorescence enhancement in T24 cells by separate administration of hypericin and particles",
  "format": "cell-based, human",
  "conditions": "Example 9, fluorescent dye = hypericin 1 μmol/l 1 h, then particles 0.001 w/v % 2 h, immediately after observation light irradiation",
  "description": "A solution (100 mmol/l) of hypericin (FUJIFILM Wako Pure Chemical Corporation) in dimethyl sulfoxide (FUJIFILM Wako Pure Chemical Corporation) as a solvent was mixed into an MEM medium (MEM, GlutaMAX™ supplement (Thermo Fisher Scientific)) to form a 1 μmol/l hypericin solution. Further, an aqueous solution of light scattering particles (2) (ii) was mixed into an MEM medium to form a 0.001 w/v % light scattering particle solution. Evaluation was performed as follows. The medium of the T24 cells on a 6-well plate, obtained in Example 3, was removed by an aspirator, and thereto was added 2 ml of MEM medium (Thermo Fisher Scientific). Once again, the MEM medium was removed by an aspirator, thereto was added 2 ml of hypericin solution, and the system was cultured under conditions of 3TC and 5 v/v % CO2 for 1 hour. Then, the hypericin solution of the cells on the 6-well plate was removed by an aspirator, to the residue was added 2 ml of the light scattering particle solution, and the system was cultured under conditions of 3TC and 5 v/v % CO2 for 2 hours. […] Detection of fluorescence was performed in the same manner as in Example 5 by using an inverted fluorescence microscope and, from the images acquired, fluorescence intensities were obtained and relative fluorescence intensities were calculated.",
  "data": [
    {"smiles": "Cc1cc(O)c2c(=O)c3c(O)cc(O)c4c5c(O)cc(O)c6c(=O)c7c(O)cc(C)c8c1c2c(c34)c(c78)c65", "note": "[hypericin]", "values": [
      {"measurement": "Relative fluorescence intensity", "result": 1.0}
    ]}
  ]
}
